Common to all, as to type: cell-based
Test [1] relates to K. pneumoniae 6299 (TEM-1, SHV-11, OXA-163). The test is described as follows: MIC of compounds and synergy with ceftazidime (broth microdilution). Particulars: for MIC, combination of CAZ and compounds of the invention: MIC of ceftazidime with compound fixed at 4 μg/mL; for MIC: Klebsiella pneumoniae. As for the experimental part:
(§1) Briefly, compounds alone according to the invention were prepared in DMSO and spotted (2 μL each) on sterile polystyrene plates (Corning, 3788). […] Microplates were incubated for 16-20 h at 35° C. in ambient air. The MIC of the compounds was defined as the lowest concentration of said compounds that prevented bacterial growth as read by visual inspection.
On the technique in general: Dilution methods test growth across graded concentrations, often in twofold steps.

Test [2] concerns E. cloacae P99 (Derepressed ampC). The test is described as above. To be noted: strain P99 (E. cloacae); for MIC, combination of CAZ and compounds of the invention: MIC of ceftazidime with compound fixed at 4 μg/mL. As for the experimental part: as §1
For test [3], the system named is P. aeruginosa CIP107051 (TEM-24). The test is described as above. To be noted: for MIC, combination of CAZ and compounds of the invention: MIC of ceftazidime with compound fixed at 4 μg/mL; for MIC: Pseudomonas aeruginosa. Here is the method:
as §1

Test [4] has as its system E. coli RGN238 (OXA-1). The test is described as above. Particulars: for MIC: Escherichia coli. Here is the method: as §1
For test [5], the system named is E. coli 131119 (TEM-1, OXA-48). The test is described as above. To be noted: for MIC: Escherichia coli. As for the experimental part: as §1
Test [6] has as its system K. pneumoniae BAA-1898 (TEM-1, SHV-11, SHV-12, KPC-2). The test is described as above. Particulars: for MIC, combination of CAZ and compounds of the invention: MIC of ceftazidime with compound fixed at 4 μg/mL; for MIC: Klebsiella pneumoniae. Here is the method: as §1
Test [7] deals with P. aeruginosa CIP105250 (OXA-15). Described as above. Particulars: for MIC, combination of CAZ and compounds of the invention: MIC of ceftazidime with compound fixed at 4 μg/mL; for MIC: Pseudomonas aeruginosa. As for the experimental part: as §1
For test [8], the system named is E. coli 190317 (TEM-1, SHV-12, CTX-M-15, OXA-1). The test is described as follows: microbe, parasite or virus in culture. As for the experimental part:
as §1

Test [9] deals with K. pneumoniae UFR77 (CMY-2). The test is described as follows: MIC of compounds and synergy with ceftazidime (broth microdilution). To be noted: Klebsiella pneumoniae, read-out: MIC of CAZ. Here is the method:
as §1

For test [10], the system named is P. aeruginosa UFR90 (Derepressed ampC, OprD-). The description is as above. To be noted: Pseudomonas aeruginosa, read-out: MIC of CAZ. As for the experimental part: as §1
For test [11], the system named is E. coli UFR74 (SHV-1, DHA-1). The description is as above. Particulars: Escherichia coli, read-out: MIC of CAZ. Here is the method: as §1
The test system of test [12] is P. aeruginosa UFR92 (Derepressed ampC, OprD-). The description is as above. Particulars: Pseudomonas aeruginosa, read-out: MIC of CAZ. As for the experimental part: as §1
Test [13] concerns P. aeruginosa UFR35 (OXA-23). Described as above. Particulars: Pseudomonas aeruginosa, read-out: MIC of CAZ. As for the experimental part: as §1
Test [14] deals with P. aeruginosa UFR48 (VIM-2). The test is described as above. To be noted: Pseudomonas aeruginosa, read-out: MIC of CAZ. Here is the method: as §1
The mark [15] stands for this setting: strain CIP107051 (P. aeruginosa).
Where [16] appears, read: strain BAA-1898 (K. pneumoniae).
[17] abbreviates: strain CIP105250 (P. aeruginosa).

Structures can show the parent of a compound that is named as a salt. Where two headings read alike, the source gives them in different places.

`COC[C@H]1C=C(c2cnco2)[C@@H]2CN1C(=O)N2OS(=O)(=O)[O-].[Na+]` (relative stereo) [Example 4]: the “MIC, combination of CAZ and compounds of the invention” value in [1] (strain 6299 (K. pneumoniae)) was 128 µg/mL; in test [2], 64 µg/mL; in test [3] (setting [15]), 64 µg/mL; in test [6] (setting [16]), 64 µg/mL; in test [7] (setting [17]), 128 µg/mL; in test [8] (MIC of ceftazidime with compound fixed at 4 μg/mL, strain 190317 (E. coli)), 4 µg/mL. In addition, the “MIC compounds of the invention alone” value in test [1] (strain 6299 (K. pneumoniae)), in test [2], in test [3] (setting [15]), in test [4] (strain RGN238 (E. coli)), in test [5] (strain 131119 (E. coli)) and in test [6] (setting [16]) was above 32 µg/mL in each case. Also, the “MIC compounds of the invention alone” value in test [7] (setting [17]) and in [8] (strain 190317 (E. coli)) was above 32 µg/mL each time.

Take `CC(C)(O/N=C(\C(=O)N[C@@H]1C(=O)N2C(C(=O)[O-])=C(C[n+]3ccccc3)CS[C@H]12)c1csc(N)n1)C(=O)O` [CAZ, ceftazidime, reference compound]: the MIC turned out to be 256 µg/mL in [1] (read-out: MIC of CAZ); 64 µg/mL in test [9]; 64 µg/mL in [10]; 64 µg/mL in [11]; 256 µg/mL in test [3] (CIP107051, read-out: MIC of CAZ); 32 µg/mL in test [12]. In addition, the MIC in test [4] (read-out: MIC of CAZ) came out at 0.5 µg/mL; in [5] (read-out: MIC of CAZ) it was 0.5 µg/mL; in test [13], 2 µg/mL; in [6] (BAA1898, read-out: MIC of CAZ), 256 µg/mL; in test [14], 256 µg/mL; in [7] (CIP105250, read-out: MIC of CAZ), 256 µg/mL.

In the case of `N=C(N)NC[C@@H]1C(c2nccs2)=C[C@@H]2CN1C(=O)N2OS(=O)(=O)O` [Example 7, [(2S,5R)-2-(guanidinomethyl)-7-oxo-3-thiazol-2-yl-1,6-diazabicyclo[3.2.1]oct-3-en-6-yl] hydrogen sulfate], the MIC was above 32 µg/mL in [1] (18 h, strain 6299 (K. pneumoniae), read-out: MIC compounds of the invention alone); 0.031 µg/mL in [2] (Enterobacter cloacae, 18 h, read-out: MIC compounds of the invention alone); 8 µg/mL in test [3] (18 h, strain CIP107051 (P. aeruginosa), read-out: MIC compounds of the invention alone); 16 µg/mL in [4] (18 h, strain RGN238 (E. coli), read-out: MIC compounds of the invention alone); 0.031 µg/mL in test [5] (18 h, strain 131119 (E. coli), read-out: MIC compounds of the invention alone); above 32 µg/mL in test [6] (BAA1898, strain BAA-1898 (K. pneumoniae), read-out: MIC compounds of the invention alone). For the same molecule, the MIC in [7] (18 h, strain CIP105250 (P. aeruginosa), read-out: MIC compounds of the invention alone) was determined as 32 µg/mL; in [8] (Escherichia coli, 18 h, read-out: MIC compounds of the invention alone), 0.063 µg/mL. Moreover, the “MIC, combination of CAZ and compounds of the invention” value was 2 µg/mL in test [1] (strain 6299 (K. pneumoniae)); below 0.125 µg/mL in [2]; 1 µg/mL in test [3] (setting [15]); at most 0.125 µg/mL in [6] (setting [16]); 32 µg/mL in [7] (setting [17]).

The values are drawn from patent US10072006B2 (MUTABILIS, priority 2015, dated 2018).
